“Also recorded” adds a separate entry of the source.
Tests used:
Assay type in all cases: binding, human
[1] = tested on: HLA alleles of class I; assay: Affinity of epitopes for HLA alleles of class I; conditions: for Affinity HLA alleles of class I: H2B-II core epitopes; for Affinity HLA alleles of class I / Affinity for the HLA alleles of class I: Table 1; for Affinity for the HLA alleles of class I: H2B-1 epitopes; for Concatenation affinity for HLA allele of class I: LmLRAB (IA, IB, IC) epitopes, Table 2
Excerpt: The multiepitopic peptide compounds (24 to 40-mer), having a high affinity with a maximized number of HLA molecules of class I and of class II, such as the affinities for the alleles HLA of class I and HLA of class II of the epitopes in the peptides of the sequences SEQ ID NO: 22, 23, 65, 66, 69, 73, 77, 96, 97, 137, 138, and 157, 185, have a high immunoprevalent potential corresponding to an optimal vaccine coverage, in particular for the populations concerned. The degree of coverage of the peptide compounds of the invention show a very high added value compared with the peptides of the prior art.

[2] = tested on: HLA alleles of class II; assay: Affinity of epitopes for HLA alleles of class II; conditions: Table 1; for Affinity HLA alleles of class II: H2B-II core epitopes; for Affinity for the HLA alleles of class II: H2B-1 epitopes
[3] = tested on: HLA supertypes of class I; assay: Affinity of epitopes for HLA supertypes of class I; conditions: for Affinity HLA supertype allele of class I: H2B-II core epitopes; for Affinity HLA supertype allele of class I / Affinity for the HLA supertypes of class I: Table 1; for Affinity for the HLA supertypes of class I: H2B-1 epitopes; for Affinity for HLA supertypes of class I: LmLRAB (IA, IB, IC) epitopes, Table 2
Excerpt: HLA molecules are highly polymorphous. This is because there exist more than 2500 HLA proteins of class I (HLA-I) and more than 1000 HLA proteins of class II (HLA-II). However, some of these HLA molecules, close in sequence and in spatial conformation, may have epitopes common to the T cells. The grouping of several thousands of HLA molecules is at the present time described in a little more than 20 or so categories, referred to as “HLA supertypes” having epitopes that are very well preserved for each supertype.

| Sequence | Affinity for the HLA alleles of class I [1] | Affinity for the HLA supertypes of class I [3] | further results |
| --- | --- | --- | --- |
| SLKAINAQM (Leishmania major) [SEQ ID NO: 50] |  |  | Affinity HLA alleles of class I [1]: HLA-B*15:01; Affinity HLA alleles of class II [2]: HLA-DRB1*04:01,; also recorded: HLA-DRB1*08:02,; also recorded: HLA-DRB1*09:01,; also recorded: HLA-DRB1*11:01,; also recorded: HLA-DRB1*13:02,; also recorded: HLA-DRB4*01:01; Affinity HLA supertype allele of class I [3]: HLA-B*62 |
| SMSHRTMKI (Leishmania major) [SEQ ID NO: 16] | HLA-A*02:03,; also recorded: HLA-A*32:01,; also recorded: HLA-A*02:01 | HLA-A*02 | Affinity for the HLA alleles of class II [2]: DRB1*07:01,; also recorded: DRB1*13:02 |
| SSIMVVANK (Leishmania major) [SEQ ID NO: 76] |  |  | Concatenation affinity for HLA allele of class I [1]: HLA-A*30:01,; also recorded: HLA-A*03:01,; also recorded: HLA-A*11:01,; also recorded: HLA-A*31:01,; also recorded: HLA-A*68:01; Affinity for HLA supertypes of class I [3]: HLA-A*01/HLA-A*03, |
| MSMSHRTMK (Leishmania major) [SEQ ID NO: 12] | HLA-A*11:01,; also recorded: HLA-A*31:01,; also recorded: HLA-A*03:01,; also recorded: HLA-A*68:01,; also recorded: HLA-A*30:01,; also recorded: HLA-A*33:01 | HLA-A*01/HLA-; also recorded: A*03, HLA-A*03 | Affinity for the HLA alleles of class II [2]: DRB1*03:01,; also recorded: DRB1*09:01,; also recorded: DRB1*11:01 |
| MSHRTMKIKA (Leishmania major) [SEQ ID NO: 9] | HLA-A*30:01 | HLA-A*01/HLA-A*03 |  |
| SMSHRTMKS (Leishmania major) [SEQ ID NO: 18] | HLA-A*02:03 | HLA-A*02 |  |
| SMSHRTMK (Leishmania major) [SEQ ID NO: 15] | HLA-A*03:01 | HLA-A*03 |  |
| QMSMSHRTM (Leishmania major) [SEQ ID NO: 49] |  |  | Affinity HLA alleles of class I [1]: HLA-B*15:01; Affinity HLA alleles of class II [2]: HLA-DRB1*01:01,; also recorded: HLA-DRB4*01:01; Affinity HLA supertype allele of class I [3]: HLA-B*62 |
| TMKSMSHRT (Leishmania major) [SEQ ID NO: 20] | HLA-A*02:03 | HLA-A*02 |  |
| IKAINAQMSM (Leishmania major) [SEQ ID NO: 2] | HLA-B*57:01; also recorded: HLA-B*15:01, | HLA-B*62; also recorded: HLA-B*58, |  |
| KTKQHLREM (Leishmania major) [SEQ ID NO: 68] |  |  | Concatenation affinity for HLA allele of class I [1]: HLA-A*30:01,; also recorded: HLA-A*2602; Affinity for HLA supertypes of class I [3]: HLA-A*01/HLA-A*03, |
| MSHRTMKIK (Leishmania major) [SEQ ID NO: 8] | HLA-A*30:01,; also recorded: HLA-A*03:01,; also recorded: HLA-A*11:01 | HLA-A*01/HLA-A*03, |  |
| TQGSSKAGF (Leishmania major) [SEQ ID NO: 72] |  |  | Concatenation affinity for HLA allele of class I [1]: HLA-B*15:01,; also recorded: HLA-B*15:02; Affinity for HLA supertypes of class I [3]: HLA-B*27,; also recorded: HLA-B*62 |
| NVYVGRSLK (Leishmania major) [SEQ ID NO: 47] |  |  | Affinity HLA alleles of class I [1]: HLA-A*03:01; Affinity HLA alleles of class II [2]: HLA-DRB5*01:01; Affinity HLA supertype allele of class I [3]: HLA-A*03 |
| MERICTEAA (Leishmania major) [SEQ ID NO: 6] | HLA-B*40:02,; also recorded: HLA-B*45 | HLA-B*44 |  |
| MMERICTEAA (Leishmania major) [SEQ ID NO: 7] | HLA-A*02:03 | HLA-A*02 |  |

Source: patent US11559575B2, “Multi-epitopic peptide compounds and vaccines against leishmaniasis” (INSTITUT DE RECHERCHE POUR LE DEVELOPPEMENT, priority 2018, dated 2023)
